Assay results as given in PMC8955938, “c-Myc Protein Level Affected by Unsymmetrical Bisacridines Influences Apoptosis and Senescence Induced in HCT116 Colorectal and H460 Lung Cancer Cells” (International Journal of Molecular Sciences, 2022).

Experiments:
[1] = system: MYC gene expression in HCT116 cells; test: RT-PCR MYC expression in HCT116; assay type: cell-based, human; settings: HCT116, IC90 doses, 120 h, 2^-ΔΔCt
Method: HCT116, H460, CCD 841 CoN and MRC-5 cells after treatment with UAs were collected, washed twice with ice-cold PBS and resuspended in […] of PBS. mRNA was isolated using High Pure RNA Isolation Kit according to the manufacturer’s instructions (Roche, Basel, Switzerland). Briefly, cells were lysed in lysis-binding buffer and transferred to a filter tube. Contaminating DNA was removed by 15 min incubation of the filter tube with DNase I solution. The filter tube was washed once with buffer I and twice with buffer II, and after centrifugation, total RNA was eluted using the elution buffer. RNA concentration was determined by NanoDrop One (Thermo Scientific); 1 µg of RNA was reverse transcribed using Transcriptor First Strand cDNA Synthesis Kit according to the manufacturer’s instructions (Roche) in 20 µL of reaction containing 1 µg of RNA, […] anchored-oligo(dT)18Primer, 8 mM MgCl2, 20 U of Protector RNase Inhibitor, deoxynucleotide mix (1 mM each) and 22 U of Transcriptor Reverse Transcriptase. The reverse transcription reaction was carried out for 30 min at 55 °C and stopped by heating to 85 °C for 5 min and placing on ice. The cDNA solution was stored at −20 °C until use. […] The relative expression level of MYC and KRAS was quantified using comparative method […]. The results were obtained from three independent experiments, each of which was analyzed at least twice.

[2] = system: H460 spheroids; parameters: method as in PMID 34684841; settings: H460 3D spheroids; cited from earlier work
[3] = system: HCT116 spheroids; parameters: method as in PMID 34684841; settings: HCT116 3D spheroids; cited from earlier work
[4] = system: H460 cells; test: Apoptosis in H460, summary of all conducted experiments; assay type: cell-based, human; settings: H460, IC90 doses, 120 h, summary in discussion
Method: Nuclear morphology was examined under a fluorescence microscope (OLYMPUS BX60, […]) after staining with Hoechst 33342. Briefly, after drug treatment, HCT116, H460, CCD 841 CoN and MRC-5 cells were spun onto microscopic slides, fixed with methanol:acetic acid (3:1) for 15 min and stained with Hoechst 33342 (1 mg/mL) for 15 min. Cells were regarded as apoptotic based on the presence of condensed, fragmented chromatin. Enlarged cells containing multiple nuclei were considered as typical of mitotic catastrophe.
Annexin V–FITC binding was performed with an Annexin-V Fluos Staining kit (BD Biosciences, San Jose, CA, USA) according to manufacturer’s protocol. […] Cells were incubated for 15 min at room temperature in the dark, then diluted with 400 µL of binding buffer and analyzed by flow cytometry with FACS Accuri C6 (BD, San Jose, CA, USA). Cells with low FITC and PI fluorescence were considered viable. Cells that presented high FITC fluorescence but low PI fluorescence were regarded as early apoptotic. Late apoptotic cells presented high FITC and PI fluorescence. Necrotic cells had low FITC fluorescence and high PI fluorescence.
Caspase-3 activity was determined using Alexa Fluor 647-conjugated anti-active caspase-3 antibody (BD Biosciences, San Diego, CA, USA) according to the manufacturer’s instructions. […]

Question: With `O=c1c2ccccc2n2cnc3ccc(NCCCN4CCN(CCCNc5c6ccccc6nc6cccc([N+](=O)[O-])c56)CC4)c1c32` [Compound C-2041] as the compound, how does the “MYC expression, fold increase” value [1] read?
Answer: 3.3 fold

Question: And the “inhibition of spheroids growth” value [2]?
Answer: to the least extent

Question: And the “inhibition of spheroids growth” value [3]?
Answer: to the least extent

Question: Which “treated cells that underwent apoptosis” value [4] does the source give for `Cc1ccc([N+](=O)[O-])c2c(NCCCN(C)CCCNc3ccc4ncn5c6ccc(O)cc6c(=O)c3c45)c3ccccc3nc12` [Compound C-2045] here?
Answer: about 60%

Question: What about the “MYC expression, fold increase” value [1] of the same compound?
Answer: 5.3 fold

Question: What does the source list for `Cc1ccc([N+](=O)[O-])c2c(NCCCN(C)CCCNc3ccc4ncn5c6ccccc6c(=O)c3c45)c3ccccc3nc12` [Compound C-2053]?
Answer: treated cells that underwent apoptosis [4]: about 60%; inhibition of spheroids growth [2]: to the greatest extent; inhibition of spheroids growth [3]: to the greatest extent
